Earlier results, collected in patent publication US5032506A, “Color control system” (priority 1986, dated 1991).

System: diaphorase
Conditions: chromogen substrates of diaphorase; literature values (Gella et al. 1981); read-out: Km for the tetrazolium salts

Structure (SMILES) | Km [µM]
O=[N+]([O-])c1ccc(-[n+]2nc(-c3ccccc3)nn2-c2ccc(I)cc2)cc1 [INT] | 870
COc1cc(-c2ccc(-n3nc(-c4ccccc4)n[n+]3-c3ccc([N+](=O)[O-])cc3)c(OC)c2)ccc1-n1nc(-c2ccccc2)n[n+]1-c1ccc([N+](=O)[O-])cc1 [NBT, nitro blue tetrazolium chloride] | 2000
